Reference: patent US11298363B2, “Triazolobenzazepines as vasopressin V1a receptor antagonists” (RICHTER GEDEON NYRT., priority 2017, dated 2022)

Assays:
[1] = biological target: T1, human vasopressin V1a receptor (Homo sapiens, UniProt P37288); experiment: Functional assay on human vasopressin V1a receptor expressing cell line (intracellular Ca2+ fluorescence); format: cell-based; settings: 1321N1 cells, (Arg8)-vasopressin at EC80; read-out: IC50 (nM) on hV1a cell line
[2] = biological target: T1, human vasopressin V1a receptor; experiment: Human vasopressin V1a receptor binding assay; settings: 1321N1 cell membranes, [3H]vasopressin; read-out: Ki (nM) on hV1a cell line
Summary of the method: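 Ki values come from IC50 via Cheng-Prusoff (KD from prior Scatchard), averaged over at least two independent runs. Human V1a membranes were incubated with radioligand 60 minutes at 27° C., bound ligand collected by filtration; (Arg^8)-vasopressin at 1.2×10^−6 M defined non-specific binding.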

T1 sequence (P37288 whole entry): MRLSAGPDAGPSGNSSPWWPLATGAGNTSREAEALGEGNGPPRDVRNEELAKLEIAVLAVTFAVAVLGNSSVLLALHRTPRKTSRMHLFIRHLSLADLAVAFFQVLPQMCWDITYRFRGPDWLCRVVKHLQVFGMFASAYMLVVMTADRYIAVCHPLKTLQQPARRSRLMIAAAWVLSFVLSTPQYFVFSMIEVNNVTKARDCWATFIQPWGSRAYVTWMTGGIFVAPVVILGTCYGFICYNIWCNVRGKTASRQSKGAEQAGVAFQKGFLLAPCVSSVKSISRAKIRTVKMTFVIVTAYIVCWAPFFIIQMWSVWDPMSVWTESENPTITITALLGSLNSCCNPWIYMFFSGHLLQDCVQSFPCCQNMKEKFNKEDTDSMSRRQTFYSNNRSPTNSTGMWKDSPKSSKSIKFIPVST

IC50 [1] [nM]	Ki [2] [nM]	Structure (SMILES)
672	66	O=C(N[C@H]1Cc2cc(Cl)ccc2-n2c(nnc2[C@H]2CC[C@H](Oc3ccccn3)CC2)C1)C1CCC(F)(F)CC1 [Example 214, N-{(5S)-8-chloro-1-[trans-4-(pyridin-2-yloxy)cyclohexyl]-5,6-dihydro-4H-[1,2,4]triazolo[4,3-a][1]benzazepin-5-yl}-4,4-difluorocyclohexanecarboxamide]
152	10.2	N#Cc1ccc2c(c1)CC1(Cc3nnc([C@H]4CC[C@H](C(=O)N5CCCCC5)CC4)n3-2)OCCO1 [Example 90, 1′-[trans-4-(piperidin-1-ylcarbonyl)cyclohexyl]-4′H,6′H-spiro[1,3-dioxolane-2,5′-[1,2,4]triazolo[4,3-a][1]benzazepin]-8′-carbonitrile]
1.2	0.6	Clc1ccc2c(c1)CC1(Cc3nnc(N4CCN(c5ccccn5)CC4)n3-2)OCCO1 [Example 171, 8′-chloro-1′-[4-(pyridin-2-yl)piperazin-1-yl]-4′H,6′H-spiro[1,3-dioxolane-2,5′-[1,2,4]triazolo[4,3-a][1]benzazepine]]
7	0.8	Clc1ccc2c(c1)CC1(Cc3nnc([C@H]4CCN(Cc5cccnc5)C4)n3-2)OCCO1 [Example 249, 8′-chloro-1-[(3S)-1-(pyridin-3-ylmethyl)pyrrolidin-3-yl]-4′H,6′H-spiro[1,3-dioxolane-2,5′-[1,2,4]triazolo[4,3-a][1]benzazepine]]
2.1	0.4	CCO[C@]1(CC)CC[C@@H](c2nnc3n2-c2ccc(Cl)cc2CC2(C3)OCCO2)CC1 [Example 229, 8′-chloro-1′-(trans-4-ethoxy-4-ethylcyclohexyl)-4′H,6′H-spiro[1,3-dioxolane-2,5′-[1,2,4]triazolo[4,3-a][1]benzazepine]]
6.5	0.4	CO[C@H]1Cc2cc(Cl)ccc2-n2c(nnc2[C@H]2CC[C@H](C(F)(F)F)CC2)C1 (single isomer, unassigned) [Example 133]
340	18	O=C1Cc2cc(C(F)(F)F)ccc2-n2c(nnc2[C@H]2CC[C@H](Oc3ccccn3)CC2)C1 [Example 48, 1-[trans-4-(pyridin-2-yloxy)cyclohexyl]-8-(trifluoromethyl)-4H-[1,2,4]triazolo[4,3-a][1]benzazepin-5(6H)-one]
22	14	O=C1Cc2cc(Cl)ccc2-n2c(nnc2[C@H]2CC[C@H](C(F)(F)F)CC2)C1 [Example 71, 8-chloro-1-[trans-4-(trifluoromethyl)cyclohexyl]-4H-[1,2,4]triazolo[4,3-a][1]benzazepin-5(6H)-one]
9.8	0.9	O=C(N[C@@H]1Cc2cc(Cl)ccc2-n2c(nnc2[C@H]2CC[C@H](Oc3ccccn3)CC2)C1)C1CCC(F)(F)CC1 [Example 221, N-{(5R)-8-chloro-1-[trans-4-(pyridin-2-yloxy)cyclohexyl]-5,6-dihydro-4H-[1,2,4]triazolo[4,3-a][1]benzazepin-5-yl}-4,4-difluorocyclohexanecarboxamide]
57	2.4	COC1Cc2cc(Cl)ccc2-n2c(nnc2C2CCN(C(=O)OC(C)(C)C)CC2)C1 (stereo not drawn) [Example 140, Tert-butyl 4-(8-chloro-5-methoxy-5,6-dihydro-4H-[1,2,4]triazolo[4,3-a][1]benzazepin-1-yl)piperidine-1-carboxylate]
1.5	0.2	COC1Cc2cc(F)ccc2-n2c(nnc2[C@H]2CC[C@H](Oc3ccccn3)CC2)C1 (stereo partly drawn) [Example 134, 8-fluoro-5-methoxy-1-[trans-4-(pyridin-2-yloxy)cyclohexyl]-5,6-dihydro-4H-[1,2,4]triazolo[4,3-a][1]benzazepine]
6.2	1	CN(C)C1Cc2cc(Cl)ccc2-n2c(nnc2N2CCC3(CC2)OCc2ccccc23)C1 (stereo not drawn) [Example 163]
4.2	0.3	CS(=O)(=O)CCOC1Cc2cc(Cl)ccc2-n2c(nnc2[C@H]2CC[C@H](Oc3ccccn3)CC2)C1 (stereo partly drawn) [Example 207, 8-chloro-5-[2-(methylsulfonyl)ethoxy]-1-[trans-4-(pyridin-2-yloxy)cyclohexyl]-5,6-dihydro-4H-[1,2,4]triazolo[4,3-a][1]benzazepine]
2.6	0.4	CC[C@]1(OC)CC[C@H](c2nnc3n2-c2ccc(Cl)cc2CC2(C3)OCCO2)CC1 [Example 241, 8′-chloro-1′-(trans-4-ethyl-4-methoxycyclohexyl)-4′H,6′H-spiro[1,3-dioxolane-2,5′-[1,2,4]triazolo[4,3-a][1]benzazepine]]
16	2.1	CC(=O)NC1Cc2cc(Cl)ccc2-n2c(nnc2C2CCN(c3ccccn3)CC2)C1 (stereo not drawn) [Example 3, N-[8-chloro-[1-(pyridin-2-yl)piperidin-4-yl]-5,6-dihydro-4H-[1,2,4]triazolo[4,3-a][1]benzazepin-5-yl]acetamide]
3.6	0.7	FC(F)(F)CN[C@H]1Cc2cc(Cl)ccc2-n2c(nnc2[C@H]2CC[C@H](Oc3ccccn3)CC2)C1 [Example 224, (5S)-8-chloro-1-[trans-4-(pyridin-2-yloxy)cyclohexyl]-N-(2,2,2-trifluoroethyl)-5,6-dihydro-4H-[1,2,4]triazolo[4,3-a][1]benzazepin-5-amine]
5.4	0.7	Clc1ccc2c(c1)CC(NC1COC1)Cc1nnc([C@H]3CC[C@H](Oc4ccccn4)CC3)n1-2 (stereo partly drawn) [Example 28, 8-chloro-N-(oxetan-3-yl)-1[trans-4-(pyridin-2-yloxy)cyclohexyl]-5,6-dihydro-4H-[1,2,4]triazolo[4,3-a][1]benzazepine-5-amine]
6.1	0.8	CC(C)(C)OC(=O)NCCN[C@@H]1Cc2cc(Cl)ccc2-n2c(nnc2[C@H]2CC[C@H](Oc3ccccn3)CC2)C1 [Example 228, Tert-butyl [2-({(5R)-8-chloro-1-[trans-4-(pyridin-2-yloxy)cyclohexyl]-5,6-dihydro-4H-[1,2,4]triazolo[4,3-a][1]benzazepin-5-yl}amino)ethyl]carbamate]
1860	71	Clc1ccc2c(c1)CC1(Cc3nnc(C4CN(c5ncccn5)C4)n3-2)OCCO1 [Example 79]
140	7.5	OC1Cc2cc(C(F)(F)F)ccc2-n2c(nnc2[C@H]2CC[C@H](Oc3ccccn3)CC2)C1 (stereo partly drawn) [Example 49, 1-[trans-4-(pyridin-2-yloxy)cyclohexyl]-8-(trifluoromethyl)-5,6-dihydro-4H-[1,2,4]triazolo[4,3-a][1]benzazepin-5-ol]
45	9.1	O=C1Cc2cc(Br)ccc2-n2c(nnc2[C@H]2CC[C@H](C(F)(F)F)CC2)C1 [Example 91, 8-bromo-1-[trans-4-(trifluoromethyl)cyclohexyl]-4H-[1,2,4]triazolo[4,3-a][1]benzazepin-5(6H)-one]
11	1.6	OC1Cc2cc(Cl)ccc2-n2c(nnc2N2CCC(c3ncccc3Cl)CC2)C1 (stereo not drawn) [Example 173, 8-chloro-1-[4-(3-chloropyridin-2-yl)piperidin-1-yl]-5,6-dihydro-4H-[1,2,4]triazolo[4,3-a][1]benzazepin-5-ol]
40	5.8	COC1Cc2cc(Cl)ccc2-n2c(nnc2[C@H]2CC[C@](OC)(C(F)(F)F)CC2)C1 (stereo partly drawn) [Example 222, 8-chloro-5-methoxy-1-[cis-4-methoxy-4-(trifluoromethyl)cyclohexyl]-5,6-dihydro-4H-[1,2,4]triazolo[4,3-a][1]benzazepine]
610	36	CC(C)NC1Cc2cc(C(F)(F)F)ccc2-n2c(nnc2[C@H]2CC[C@H](Oc3ccccn3)CC2)C1 (stereo partly drawn) [Example 36, N-(propan-2-yl)-1-[trans-4-(pyridin-2-yloxy)cyclohexyl]-8-(trifluoromethyl)-5,6-dihydro-4H-[1,2,4]triazolo[4,3-a][1]benzazepine-5-amine]
1250	97	COC1Cc2cc(Cl)ccc2-n2c(nnc2[C@H]2CC[C@@H](N3CCCC3=O)CC2)C1 (stereo partly drawn) [Example 218, 1-[cis-4-(8-chloro-5-methoxy-5,6-dihydro-H-[1,2,4]triazolo[4,3-a][1]benzazepin-1-yl)cyclohexyl]pyrrolidin-2-one]
1.6	0.3	CC(=O)OC1Cc2cc(Cl)ccc2-n2c(nnc2[C@H]2CC[C@H](Oc3ccccn3)CC2)C1 (stereo partly drawn) [Example 195, 8-chloro-1-[trans-4-(pyridin-2-yloxy)cyclohexyl]-5,6-dihydro-4H-[1,2,4]triazolo[4,3-a][1]benzazepin-5-yl acetate]
251	66	CC(C)(C)C(=O)N[C@H]1Cc2cc(Cl)ccc2-n2c(nnc2[C@H]2CC[C@H](Oc3ccccn3)CC2)C1 [Example 118]
10	3	CN(C)C(=O)NC1Cc2cc(Cl)ccc2-n2c(nnc2[C@H]2CC[C@H](Oc3ccccn3)CC2)C1 (stereo partly drawn) [Example 16, 3-{8-chloro-1-[trans-4-(pyridin-2-yloxy)cyclohexyl]-5,6-dihydro-4H-[1,2,4]triazolo[4,3-a][1]benzazepin-5-yl}-1,1-dimethylurea]
170	7	NC1Cc2cc(Cl)ccc2-n2c(nnc2C2CCN(c3ccccn3)CC2)C1 (stereo not drawn) [Example 2, 8-chloro-1-[1-(pyridin-2-yl)piperidin-4-yl]-5,6-dihydro-4H-[1,2,4]triazolo[4,3-a][1]benzazepine-5-amine]
1.4	0.2	FC(F)(F)[C@H]1CC[C@H](c2nnc3n2-c2ccc(Br)cc2CC2(C3)OCCO2)CC1 [Example 81, 8′-bromo-1′-[trans-4-(trifluoromethyl)cyclohexyl]-4′H,6′H-spiro[1,3-dioxolane-2,5′-[1,2,4]triazolo[4,3-a][1]benzazepine]]
